Results as given in the supplement of paper PMC11208160.

Assay: recombinant UMI read abundance after kanamycin selection (control-corrected) (log10(CPM+1)); higher = more efficient recombination; extreme values may be limits of the assay; sequences stand for … in AGTGCAGAGAAAATCGGCCAGTTTTCTCTGCCTGCAGTCCGCATGCCGTGGGACCCCTTGGGTTCTAACCTGTTGCCTAGATTTATGCAGCGGACTGCCTTTCTCCCAAAGTGATAAACCGG…AGGTTGGTTTCACT; site = the 11-nt donor
How it was run: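 Pooled Escherichia coli screen of donor and donor-binding-loop pairs for the IS621 bridge recombinase. Each pair sits with a 12-nt UMI on a plasmid carrying a promoterless kanamycin gene. The library was co-electroporated with a target plasmid encoding a fixed target and T7-inducible recombinase, then plated with IPTG (0.07 mM) plus kanamycin, or unselected, each in two replicates. Recombinant UMIs were PCR-amplified across the donor–target junction and sequenced. Counts became CPM, averaged over replicates, scaled by control-derived factors and reported as log10(CPM+1).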
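Note: IS621 bridge recombinase in Escherichia coli cells against a fixed T5 target plasmid.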

Sequence | recombinant UMI read abundance (log10)
GATTATCCATGGACCGGTTTTCCCGGTAATCCGTATTTGCT (site GATTATCCTCG) | 0
GATTATCCATGGACCGGTTTTCCCGGTAATCCGTATTTGCT (site GATTATCCTGG) | 0
GATTATCCATGGACCGGTTTTCCCGGTAATCCGTATTTGCT (site GATTATCCTTG) | 0
GATTATCCATGGACCGGTTTTCCCGGTAATCCGTATTTGCT (site GATTATGCTAG) | 0
GATTATCCATGGACCGGTTTTCCCGGTAATCCGTATTTGCT (site GATTATTCTAG) | 0
GATTATCCATGGACCGGTTTTCCCGGTAATCCGTATTTGCT (site GATTCTCCTAG) | 0
GATTATCCATGGACCGGTTTTCCCGGTAATCCGTATTTGCT (site GATTGTCCTAG) | 0
GATTATCCATGGACCGGTTTTCCCGGTAATCCGTATTTGCT (site GATTTTCCTAG) | 0
GATTATCCATGGACCGGTTTTCCCGGTAATCCGTATTTGCT (site GCTTATCCTAG) | 0
GATTATCCATGGACCGGTTTTCCCGGTAATCCGTATTTGCT (site GGTTATCCTAG) | 0
GATTATCCATGGACCGGTTTTCCCGGTAATCCGTATTTGCT (site GTTTATCCTAG) | 0
GATTATCCATGGACCGGTTTTCCCGGTAATCCGTATTTGCT (site TATTATCCTAG) | 0
GATTATGCATGGACCGGTTTTCCCGGTAATCCGTATTTGCT (site GATTATACTAG) | 1.54
GATTATGCATGGACCGGTTTTCCCGGTAATCCGTATTTGCT (site GATTATCCTAG) | 0.309
GATTATGCATGGACCGGTTTTCCCGGTAATCCGTATTTGCT (site GATTATGCTAG) | 2.13
GATTATGCATGGACCGGTTTTCCCGGTAATCCGTATTTGCT (site GATTATTCTAG) | 0

Sequence | recombinant UMI read abundance (log10)
GATTCACCATGGACCGGTTTTCCCGGTAATCCGTATTTGTT (site GATTCACCTAA) | 0.0124
GATTCGACATGGACCGGTTTTCCCGGTAATCCGTATTTGAC (site GATTAGACTGT) | 0
GATTCGACATGGACCGGTTTTCCCGGTAATCCGTATTTGAC (site GATTCGACTGT) | 2.01
GATTCGACATGGACCGGTTTTCCCGGTAATCCGTATTTGAC (site GATTGGACTGT) | 0
GATTCGACATGGACCGGTTTTCCCGGTAATCCGTATTTGAC (site GATTTGACTGT) | 0
GATTGCACATGGACCGGTTTTCCCGGTAATCCGTATTTGAC (site GATTGAACTGT) | 0
GATTGCACATGGACCGGTTTTCCCGGTAATCCGTATTTGAC (site GATTGCACTGT) | 1.53
GATTGCACATGGACCGGTTTTCCCGGTAATCCGTATTTGAC (site GATTGGACTGT) | 0
GATTGCACATGGACCGGTTTTCCCGGTAATCCGTATTTGAC (site GATTGTACTGT) | 0
GATTGCCCATGGACCGGTTTTCCCGGTAATCCGTATTTGAT (site GATTGCCCTAT) | 0
GATTGCCCATGGACCGGTTTTCCCGGTAATCCGTATTTGAT (site GCTTGCCCTAT) | 0.0105
GATTGCCCATGGACCGGTTTTCCCGGTAATCCGTATTTGAT (site GGTTGCCCTAT) | 0.00714
GATTGCCCATGGACCGGTTTTCCCGGTAATCCGTATTTGAT (site GTTTGCCCTAT) | 0.00814
GATTGGACATGGACCGGTTTTCCCGGTAATCCGTATTTGAA (site GATTGGACTAT) | 0.0122
GATTGGACATGGACCGGTTTTCCCGGTAATCCGTATTTGAA (site GATTGGACTCT) | 0.0133
GATTGGACATGGACCGGTTTTCCCGGTAATCCGTATTTGAA (site GATTGGACTGT) | 0
